The results in this text go back to PubChem BioAssay (NCI).

Each structure is given as a SMILES string.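 Five compound concentrations were applied to cells in 96-well plates for 48 hours; endpoints were derived by simple linear interpolation of the resulting dose-response curve. TGI denotes the concentration required for complete inhibition of growth.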

Test systems include HS 578T breast; SW-620 colon; K-562 leukemia; COLO 205 colon; SK-MEL-5 melanoma; SNB-19 CNS; ACHN renal; MDA-N; UO-31 renal; HCT-15 colon; SF-268 CNS; UACC-257 melanoma; MOLT-4 leukemia; HT29 colon; T-47D breast; SF-295 CNS; UACC-62 melanoma; SK-MEL-2 melanoma; CAKI-1 renal.
Holding throughout (experiment): NCI tumour cell line growth inhibition, 48 h

`COC(=O)CCc1ccc2c(c1)CC1(C2)Cc2ccc3c(c2C1)CCC3` (stereo unspecified): the TGI is above 100 µM with HS 578T breast; above 100 µM in the assay with SW-620 colon; above 100 µM in the assay on K-562 leukemia; above 100 µM with COLO 205 colon; 90.9 µM in the assay on SK-MEL-5 melanoma; above 100 µM in the assay on SNB-19 CNS. The TGI in the assay with ACHN renal was above 100 µM; in the assay on MDA-N, above 100 µM; in the assay on UO-31 renal, 67.5 µM; in the assay with HCT-15 colon, above 100 µM; in the assay with SF-268 CNS it was above 100 µM; in the assay with UACC-257 melanoma, above 100 µM. Moreover, the TGI in the assay with MOLT-4 leukemia, with HT29 colon, with T-47D breast, in the assay on SF-295 CNS and with UACC-62 melanoma was above 100 µM throughout.
For `CC1C(=O)C23OC[C@@]1(C)C1(O)CC[C@@H](C)[C@]21CC3=O` (stereo partly specified), the TGI with HS 578T breast, with SW-620 colon, with K-562 leukemia, with COLO 205 colon, in the assay with SK-MEL-2 melanoma and in the assay with SK-MEL-5 melanoma was above 100 µM throughout. Moreover, the TGI in the assay with SNB-19 CNS, in the assay on ACHN renal, with MDA-N, in the assay with UO-31 renal, in the assay on HCT-15 colon and with SF-268 CNS was above 100 µM throughout. The TGI in the assay with UACC-257 melanoma, with MOLT-4 leukemia, with HT29 colon, in the assay on T-47D breast, in the assay on SF-295 CNS and in the assay with UACC-62 melanoma was above 100 µM throughout.
Take `Cc1onc(-c2c(F)cccc2Cl)c1C(=O)N[C@@H]1C(=O)N2[C@@H]1SC(C)(C)[C@@H]2C(=O)O`: the TGI in the assay on HS 578T breast, with SW-620 colon, in the assay with K-562 leukemia, with COLO 205 colon, in the assay with SK-MEL-2 melanoma and in the assay with SK-MEL-5 melanoma was above 100 µM in each case. In addition, the TGI in the assay on SNB-19 CNS is above 100 µM; in the assay with ACHN renal it was above 100 µM; in the assay with MDA-N it was above 100 µM; in the assay on CAKI-1 renal it was above 100 µM; with UO-31 renal, 67.4 µM; in the assay on HCT-15 colon, above 100 µM. In addition, the TGI in the assay with SF-268 CNS, in the assay on UACC-257 melanoma, in the assay on HT29 colon, in the assay on T-47D breast, in the assay with SF-295 CNS and in the assay on UACC-62 melanoma was above 100 µM throughout.
As for `O=C(N/C(=C/c1ccc(Cl)cc1)c1nc2ccccc2c(=O)n1Nc1ccc([N+](=O)[O-])cc1[N+](=O)[O-])c1ccccc1`, the TGI in the assay with HS 578T breast, with SW-620 colon, in the assay with K-562 leukemia, in the assay on COLO 205 colon, with SK-MEL-5 melanoma and in the assay with SNB-19 CNS was above 100 µM each time. Further, the TGI with MDA-N, in the assay with CAKI-1 renal, with UO-31 renal, in the assay with HCT-15 colon, with UACC-257 melanoma and in the assay with MOLT-4 leukemia was above 100 µM throughout. In addition, the TGI in the assay on HT29 colon, in the assay on T-47D breast, in the assay with SF-295 CNS and with UACC-62 melanoma was above 100 µM in each case.
As for `CCOC(=O)c1c(N2CCOCC2)[nH]c(=O)c(C(c2ccc(Cl)c([N+](=O)[O-])c2)c2c(O)c(C(=O)OCC)c(N3CCOCC3)[nH]c2=O)c1O`, the TGI in the assay with HS 578T breast is above 100 µM; with SW-620 colon it was 58.7 µM; with K-562 leukemia, above 100 µM; in the assay on COLO 205 colon, above 100 µM; in the assay on SK-MEL-5 melanoma, 74.5 µM; with SNB-19 CNS it was 79.3 µM. Also, the TGI with ACHN renal was above 100 µM; with MDA-N it was 70.1 µM; with CAKI-1 renal it was above 100 µM; in the assay with UO-31 renal, 95.5 µM; in the assay with HCT-15 colon, above 100 µM; in the assay with SF-268 CNS, above 100 µM. The TGI in the assay with UACC-257 melanoma was above 100 µM; in the assay on MOLT-4 leukemia, 57.8 µM; in the assay with HT29 colon, 42.1 µM; in the assay on T-47D breast, 48.8 µM; in the assay on SF-295 CNS, above 100 µM; with UACC-62 melanoma it was above 100 µM.
For the molecule `CCCCCCCCCC(=O)CC(=O)c1c(O)cc(O)cc1O`, the TGI with HS 578T breast was 44.9 µM; with SW-620 colon, above 75 µM; in the assay with K-562 leukemia, 36.3 µM; with COLO 205 colon, above 75 µM; in the assay with SK-MEL-2 melanoma, 40.9 µM; with SK-MEL-5 melanoma, 28.6 µM. Besides, the TGI in the assay with SNB-19 CNS was 68.1 µM; with ACHN renal, above 75 µM; with MDA-N it was 38 µM; in the assay on CAKI-1 renal, above 75 µM; in the assay with UO-31 renal, 31.7 µM; in the assay on HCT-15 colon it was 43.8 µM. Also, the TGI in the assay on SF-268 CNS is 49.5 µM; in the assay with UACC-257 melanoma, 63.4 µM; in the assay with MOLT-4 leukemia, 32.1 µM; in the assay with HT29 colon, 38.8 µM; with T-47D breast it was above 75 µM; in the assay with SF-295 CNS it was 68.2 µM.
Take `CN(NC(=O)c1cccs1)C1=NCCN1`: the TGI with HS 578T breast, in the assay with SW-620 colon, in the assay with K-562 leukemia, in the assay on COLO 205 colon, in the assay on SK-MEL-2 melanoma and in the assay with SK-MEL-5 melanoma was above 100 µM in each case. In addition, the TGI in the assay with SNB-19 CNS, with ACHN renal, with MDA-N, in the assay with UO-31 renal, with HCT-15 colon and with SF-268 CNS was above 100 µM throughout. Further, the TGI in the assay with UACC-257 melanoma, with MOLT-4 leukemia, in the assay with HT29 colon, in the assay with T-47D breast, with SF-295 CNS and with UACC-62 melanoma was above 100 µM each time.
On to `CC(=O)NNc1nc(C)c(C(/C=C/c2ccc(NC(C)=O)cc2)=N/NS(=O)(=O)c2ccc(C)cc2)s1`, for which the TGI in the assay with HS 578T breast, in the assay on SW-620 colon, in the assay on COLO 205 colon, with SK-MEL-2 melanoma, in the assay on SK-MEL-5 melanoma and in the assay on SNB-19 CNS was above 100 µM each time. Besides, the TGI in the assay on ACHN renal, with MDA-N, with CAKI-1 renal, in the assay on UO-31 renal, with HCT-15 colon and in the assay with SF-268 CNS was above 100 µM each time. Besides, the TGI in the assay with UACC-257 melanoma, with MOLT-4 leukemia, in the assay on HT29 colon, in the assay on T-47D breast, in the assay with SF-295 CNS and with UACC-62 melanoma was above 100 µM throughout.
Regarding `CC[N+](CC)(CC)/C(=N/S(=O)(=O)c1cc(C)c(Cl)cc1S)[N-]S(=O)(=O)c1ccc(Cl)cc1`, the TGI in the assay on HS 578T breast, with SW-620 colon, in the assay with K-562 leukemia, with SK-MEL-2 melanoma, in the assay on SK-MEL-5 melanoma and in the assay on ACHN renal was above 100 µM in each case. Also, the TGI in the assay with MDA-N, with CAKI-1 renal, with UO-31 renal, in the assay with HCT-15 colon, with SF-268 CNS and in the assay on UACC-257 melanoma was above 100 µM throughout. Besides, the TGI in the assay on MOLT-4 leukemia, with HT29 colon, in the assay on T-47D breast and in the assay with SF-295 CNS was above 100 µM in each case.
Turning to `CCOC(=O)CCC(NC(=O)c1ccc(Oc2nc3ccccc3nc2C(=O)OCC)cc1)C(=O)OCC` (stereo unspecified), the TGI with HS 578T breast, in the assay on SW-620 colon, in the assay on COLO 205 colon, in the assay on SK-MEL-2 melanoma, in the assay on SK-MEL-5 melanoma and in the assay on SNB-19 CNS was above 100 µM throughout. Also, the TGI with ACHN renal, with MDA-N, in the assay with CAKI-1 renal, in the assay with UO-31 renal, in the assay on HCT-15 colon and in the assay on SF-268 CNS was above 100 µM in each case. Further, the TGI in the assay with UACC-257 melanoma, in the assay on MOLT-4 leukemia, in the assay on HT29 colon, with T-47D breast, in the assay with SF-295 CNS and in the assay on UACC-62 melanoma was above 100 µM each time.
Turning to `O=C1/C(=C\c2c(-c3ccccc3)nn(-c3ccccc3)c2O)C(c2ccccc2)=NN1c1ccccc1`, the TGI with HS 578T breast, in the assay with SW-620 colon, in the assay with K-562 leukemia, with COLO 205 colon, in the assay with SK-MEL-2 melanoma and in the assay with SNB-19 CNS was above 100 µM throughout. The TGI in the assay on ACHN renal, in the assay with MDA-N, in the assay on CAKI-1 renal, with UO-31 renal, in the assay with HCT-15 colon and in the assay with SF-268 CNS was above 100 µM throughout. Moreover, the TGI in the assay on UACC-257 melanoma, in the assay with MOLT-4 leukemia, in the assay on HT29 colon, with T-47D breast, in the assay on SF-295 CNS and in the assay with UACC-62 melanoma was above 100 µM throughout.
Consider `O=C(O)c1cc(N(Cc2ccccc2O)Cc2cc(O)ccc2O)ccc1O`, for which the TGI in the assay on HS 578T breast, in the assay with SW-620 colon, with K-562 leukemia, in the assay on COLO 205 colon, with SK-MEL-2 melanoma and with SK-MEL-5 melanoma was above 100 µM in each case. Also, the TGI with SNB-19 CNS, in the assay with ACHN renal, with MDA-N, in the assay on UO-31 renal, with HCT-15 colon and in the assay on SF-268 CNS was above 100 µM each time. Moreover, the TGI with UACC-257 melanoma, in the assay with MOLT-4 leukemia, with HT29 colon, in the assay with T-47D breast, in the assay on SF-295 CNS and in the assay on UACC-62 melanoma was above 100 µM each time.
